The record followed here is paper PMC8573827, “Zinc protoporphyrin binding to telomerase complexes and inhibition of telomerase activity” (Pharmacology Research & Perspectives, 2021).

Read-outs that look alike come from different tables or passages of the source.

The test system of assay [1] is Huh7 cells. The assay is described as follows: MTT cell proliferation/viability assay, Huh7. Particulars: Huh7 vs U2OS, 72 h. The class given is cell-based, human. How it is done: MPPs were tested for effects on cell proliferation and viability using MTT (3‐(4,5‐dimethylthiazol‐2‐yl)‐2,5‐diphenyltetrazolium bromide) dye conversion assay (Cell Titer 96, Promega) as we described[22] with some modifications. Cells were plated into 96 well plates and allowed to attach overnight. MPPs were added to the cultures and then incubated for the times indicated. At assay time, MTT reagent was added and absorbance measured at 570 nm. Controls included buffer blanks containing MPP because of background absorbances reported for MPPs by us[22] and others.[23] The formula used for determination of viable cells relative to controls was: %viablecells=(abssample‐absblank)/(absconrtrol‐absblank)×100

Assay [2] relates to TERT, β-catenin, and cyclin D1 expression. The assay is described as follows: Western blot of proliferative proteins in Huh7 cells. Particulars: Huh7, 48 h. It is filed as cell-based, human. As to the method: For SDS ‐PAGE, cellular lysates, and protein preparations such as IP were dissolved in Laemmli buffer, boiled for 1 min and separated on denaturing SDS gels as described.[28] After electrophoretic transfer of separated proteins to nitrocellulose sheets, western blot immunoassays employed enhanced chemiluminescence for signal detection (ECL^TM Prime, Amersham).[28]
(In general: Immunoblotting shows a protein as a band on a membrane.)

Assay [3] concerns the target T1, Taq DNA polymerase (Thermus aquaticus, UniProt P19821).
T1 construct: purchased Perkin‐Elmer Cetus, Norwalk, CT
The assay is described as follows: Taq polymerase inhibition test, MPP added after the telomerase extension step of TRAP. The class given is biochemical. As to the method:
(§1) For TRAP assay, a Quantitative Telomerase Detection Kit (US Biomax, Inc) was used to assay cellular lysates or TERT immunoprecipitates (IP) according to the manufacturer's directions. Relative telomerase activity was derived from a standard curve of reference samples and data were analyzed using relative fluorescence units as compared to controls. In some cases, telomerase reaction products were visualized and quantified with TRAPeze system (EMD/Millipore). After separation of the DNA products using 10% non‐denaturing PAGE and SYBR fluorescence labeling [1x SYBR safe DNA gel stain (Invitrogen)], gel bands were imaged with iBright 1500 (Invitrogen). The intensity of the sample's TRAP ladder and internal control was first measured using GelAnalyzer [GelAnalyzer 19.1 (www.gelanalyzer.com )] as recommended. Then, the relative telomerase activity was determined by the ratio of the intensity of the sample's TRAP ladder (telomerase products, TP) to that of the internal control (IC) band.
Because of concerns that some quadruplex ligands inhibit Taq DNA polymerase in addition to telomerase, we assayed MPP inhibition at both steps of the TRAP procedure with a strategy similar to that of others.[36] Using equivalent extracts but separate assays, MPP was either included in the telomerase RT extension step or the extension step was conducted without MPP and then MPP added only for the amplification steps with Taq DNA polymerase. To avoid further potential errors introduced by Real‐time quantification, TRAP products were labeled with SYBR green, visualized on denaturing gels, and each lane was quantified by density measurements as described in the Methods. The latter step also ruled out the possibility that decreases in activity were artifactual due to fluorescence signal quenching by some MPPs.[37] […] All three MPPs had minimal effects on Taq polymerase […] and the slight inhibition of Taq polymerase seen for ZnPP was not directly concentration‐dependent.
Enzymatic extracts were prepared from semi-confluent Huh7 cells and aliquots were assayed in triplicate using TRAP assay. CoPP was added to RT-PCR reactions either before or after the RT telomere elongation step to test whether it inhibited Taq polymerase. Visualization of amplified telomeric products was on 12% denaturing gels using SYBR fluorescence labelling (upper panels). Quantification was with densitometry as described in Methods and plot shown (lower panel). Plotted points represent the mean +/- SD with n =3. (IC)= internal Taq polymerase control.

Assay [4] concerns the target T2, telomerase (Homo sapiens, UniProt O14746). Description: TRAP (TRAPeze) telomerase activity assay in Huh7 cellular lysates/enzymatic extracts. It is filed as biochemical. Set-up: Enzymatic extracts were prepared from semi‐confluent phase Huh7 cells and aliquots were assayed in triplicate using TRAP assay; endogenous in cells; host or cells: Huh7. How it is done: (§2) Telomerase reverse transcriptase (TERT) enzymatic activity was determined using Telomeric Repeat Amplification Protocol (TRAP) with Real‐time quantification as described previously,[25] or measured directly using α‐^32P‐dGTP incorporation as described[26] with modifications as below.
as §1
(§3) The EC50 was the extracellular concentration of MPP inhibitor calculated to result in 50% reduction of cellular telomerase activity after incubation in whole cells. Similarly, IC50 was the concentration of MPP inhibitor necessary to inhibit 50% of telomerase enzyme activity in vitro in cellular lysates. Both were calculated using GraphPad as directed and verified graphically on plots of enzyme activity vs inhibitor concentration.
Target sequence in this assay (O14746 whole entry): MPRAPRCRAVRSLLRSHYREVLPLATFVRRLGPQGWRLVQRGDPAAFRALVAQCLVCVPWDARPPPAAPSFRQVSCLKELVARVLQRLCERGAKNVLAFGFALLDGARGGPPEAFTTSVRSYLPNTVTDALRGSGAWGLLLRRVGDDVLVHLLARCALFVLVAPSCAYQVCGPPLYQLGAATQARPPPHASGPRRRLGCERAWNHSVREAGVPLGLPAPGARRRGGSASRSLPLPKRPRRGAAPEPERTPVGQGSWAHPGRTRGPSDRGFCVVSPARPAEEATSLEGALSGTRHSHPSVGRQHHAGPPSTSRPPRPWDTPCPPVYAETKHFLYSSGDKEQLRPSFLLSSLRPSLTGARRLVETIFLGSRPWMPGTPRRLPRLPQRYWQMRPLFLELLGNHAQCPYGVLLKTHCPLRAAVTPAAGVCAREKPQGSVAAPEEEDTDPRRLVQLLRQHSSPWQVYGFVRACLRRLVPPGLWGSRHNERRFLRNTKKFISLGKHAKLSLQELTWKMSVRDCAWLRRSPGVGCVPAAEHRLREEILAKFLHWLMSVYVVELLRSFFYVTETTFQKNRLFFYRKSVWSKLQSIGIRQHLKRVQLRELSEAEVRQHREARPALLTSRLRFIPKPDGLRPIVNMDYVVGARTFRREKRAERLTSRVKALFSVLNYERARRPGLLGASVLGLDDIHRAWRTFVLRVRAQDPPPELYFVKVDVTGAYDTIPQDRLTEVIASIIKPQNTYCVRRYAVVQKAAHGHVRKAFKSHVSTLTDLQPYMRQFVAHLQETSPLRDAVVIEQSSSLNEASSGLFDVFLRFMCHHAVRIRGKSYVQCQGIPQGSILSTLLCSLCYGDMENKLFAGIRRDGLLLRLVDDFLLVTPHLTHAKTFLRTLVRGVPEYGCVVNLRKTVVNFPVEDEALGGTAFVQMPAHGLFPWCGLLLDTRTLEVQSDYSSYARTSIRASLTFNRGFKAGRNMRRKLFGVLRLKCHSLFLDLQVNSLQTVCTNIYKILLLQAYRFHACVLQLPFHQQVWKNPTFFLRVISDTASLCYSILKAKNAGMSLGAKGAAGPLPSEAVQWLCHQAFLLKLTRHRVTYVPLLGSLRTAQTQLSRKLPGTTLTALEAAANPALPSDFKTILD
Target sequence in this assay (O60832 whole entry partner): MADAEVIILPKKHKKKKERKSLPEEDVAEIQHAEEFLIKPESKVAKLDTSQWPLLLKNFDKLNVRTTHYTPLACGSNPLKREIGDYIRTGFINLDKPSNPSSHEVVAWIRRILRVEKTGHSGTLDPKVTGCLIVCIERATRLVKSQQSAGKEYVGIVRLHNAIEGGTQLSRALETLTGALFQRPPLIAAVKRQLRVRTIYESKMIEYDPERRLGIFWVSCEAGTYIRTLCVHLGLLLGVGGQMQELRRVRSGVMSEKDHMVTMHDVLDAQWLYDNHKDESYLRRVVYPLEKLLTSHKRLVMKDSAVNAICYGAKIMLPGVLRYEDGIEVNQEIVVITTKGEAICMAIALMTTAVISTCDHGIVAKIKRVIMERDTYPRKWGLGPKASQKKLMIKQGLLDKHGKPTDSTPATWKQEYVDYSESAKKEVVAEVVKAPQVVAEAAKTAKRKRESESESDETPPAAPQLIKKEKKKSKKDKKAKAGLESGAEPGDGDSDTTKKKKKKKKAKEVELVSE
Target sequence in this assay (Q9NPE3 whole entry partner): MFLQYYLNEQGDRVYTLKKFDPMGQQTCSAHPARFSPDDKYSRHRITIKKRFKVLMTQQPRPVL
Target sequence in this assay (Q9NX24 whole entry partner): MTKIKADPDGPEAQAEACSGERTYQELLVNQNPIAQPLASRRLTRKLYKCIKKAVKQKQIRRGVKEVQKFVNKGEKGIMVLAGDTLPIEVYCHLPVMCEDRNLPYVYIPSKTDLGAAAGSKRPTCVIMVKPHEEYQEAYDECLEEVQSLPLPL
Target sequence in this assay (Q9NY12 whole entry partner): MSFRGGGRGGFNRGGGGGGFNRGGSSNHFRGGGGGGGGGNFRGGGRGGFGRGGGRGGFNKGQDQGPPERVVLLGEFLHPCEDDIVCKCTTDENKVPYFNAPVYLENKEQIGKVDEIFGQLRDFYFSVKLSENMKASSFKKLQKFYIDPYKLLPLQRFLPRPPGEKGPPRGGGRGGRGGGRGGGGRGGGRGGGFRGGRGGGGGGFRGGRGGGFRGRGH
Target sequence in this assay (Q9BUR4 whole entry partner): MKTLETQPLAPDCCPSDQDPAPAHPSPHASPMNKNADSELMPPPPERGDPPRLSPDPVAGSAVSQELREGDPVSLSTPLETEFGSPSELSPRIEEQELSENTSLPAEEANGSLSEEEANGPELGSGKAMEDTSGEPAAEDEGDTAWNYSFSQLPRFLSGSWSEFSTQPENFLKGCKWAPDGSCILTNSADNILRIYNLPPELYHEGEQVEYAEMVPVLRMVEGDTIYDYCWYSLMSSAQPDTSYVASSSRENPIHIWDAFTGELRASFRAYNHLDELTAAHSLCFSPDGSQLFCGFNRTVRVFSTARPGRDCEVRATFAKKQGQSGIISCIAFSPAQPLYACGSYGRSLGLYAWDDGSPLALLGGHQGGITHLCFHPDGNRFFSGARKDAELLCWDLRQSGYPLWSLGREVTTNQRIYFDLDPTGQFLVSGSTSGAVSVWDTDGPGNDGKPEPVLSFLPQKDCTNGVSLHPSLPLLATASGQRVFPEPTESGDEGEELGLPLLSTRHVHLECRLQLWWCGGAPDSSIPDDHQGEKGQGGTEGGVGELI

The target of assay [5] is T2, telomerase. The assay is described as follows: Direct α-32P-dGTP telomerase extension assay, IP eluates of HEK-293T cells overexpressing TERT, TERC and dyskerin. Particulars: Table 2b; mean of 2–4 experiments. It is filed as biochemical. Set-up: purchased Abbexa Ltd (UK) Abx069991; host or cells: HEK-293T cells overexpressing TERT, TERC and dyskerin. How it is done: For direct telomerase activity assay, a modified procedure of Tomlinson et al[26] was used. Briefly, HEK‐293T cell pellet from 10^7 cells overexpressing TERT, TERC, and dyskerin was obtained from Abbexa Ltd (UK. Abx069991). The whole‐cell lysate was produced using 1ml buffer A [20 mM HEPES‐KOH buffer (pH 8), 300 mM KCl, 2 mM MgCl2, 0.1% v/v Triton X‐100, 10% v/v glycerol]. Immunoprecipitation of telomerase was performed with anti‐hTERT polyclonal sheep antibody (abx120550, Abbexa, U.K.). The telomerase was finally eluted with hTERT peptide (abx069990, Abbexa, U.K.). 10µl of eluates were mixed with different concentrations of MPP and incubated on ice for 2 h. Then the pellet‐MPP complex was added to the extension reaction mixture composed of 1x telomerase buffer, 300 mM KCl, 1 µM Bio‐L‐18GGG, 1 mM dATP, 1 mM dTTP, 10 µM dGTP, 20 µCi α‐^32P‐dGTP, 10 mM DTT, 5’ biotinylated DNA substrate (5’‐CTAGACCTGTCATCA(TTAGGG)3‐3’) and 10% glycerol. The reaction was conducted at 37 °C for 2 h. The purification of telomerase extension products employed Dynabeads M‐280 streptavidin. Five microliters of purified products were loaded on 6% sequencing gel (TBE‐UREA denaturing gel) with Model S2 Sequencing Gel Electrophoresis Apparatus (LabRepCo, Horsham, PA). […] This screen was then scanned using a STORM phosphorimager (Molecular Dynamics), and bands were quantified using GelAnalyzer as described above. […]
Target sequence in this assay (O14746 whole entry): as the sequence (O14746 whole entry) above
Target sequence in this assay (O60832 whole entry partner): as the sequence (O60832 whole entry partner) above
Target sequence in this assay (Q9NPE3 whole entry partner): as the sequence (Q9NPE3 whole entry partner) above
Target sequence in this assay (Q9NX24 whole entry partner): as the sequence (Q9NX24 whole entry partner) above
Target sequence in this assay (Q9NY12 whole entry partner): as the sequence (Q9NY12 whole entry partner) above

Assay [6] concerns the target T3, telomerase activity in Hek293 cells (Homo sapiens, UniProt O14746).
T3 construct: Log phase Huh7, Hek293 and Huh5.15 HCV replicon cells; endogenous in cells; host or cells: Hek293 (wild type)
The assay is described as follows: Telomerase activity by TRAP after incubation of intact Hek293 cells with MPP. It is filed as cell-based. As to the method:
as §2, §1, §3

The target of assay [7] is T4, telomerase activity in Huh7 cells (Homo sapiens, UniProt O14746).
T4 construct: Enzymatic extracts were prepared from semi‐confluent phase Huh7 cells and aliquots were assayed in triplicate using TRAP assay; endogenous in cells; host or cells: Huh7
T4 sequence (O14746 whole entry): as the sequence (O14746 whole entry) above
T4 sequence (O60832 whole entry partner): as the sequence (O60832 whole entry partner) above
T4 sequence (Q9NPE3 whole entry partner): as the sequence (Q9NPE3 whole entry partner) above
T4 sequence (Q9NX24 whole entry partner): as the sequence (Q9NX24 whole entry partner) above
T4 sequence (Q9NY12 whole entry partner): as the sequence (Q9NY12 whole entry partner) above
T4 sequence (Q9BUR4 whole entry partner): as the sequence (Q9BUR4 whole entry partner) above
Description: Telomerase activity by TRAP after incubation of intact Huh7 cells with MPP. The class given is cell-based. How it is done:
as §2, §1, §3

In assay [8] the test system is high molecular weight complexes containing telomerase. The assay is described as follows: Fluorescent labelling of cellular lysate complexes on non-denaturing 0.8% agarose gels. It is filed as binding, human. Particulars: Huh7 lysates, fluorescence visualization. As to the method: 0.8% Agarose gels were run in Tris‐Borate‐EDTA buffer using standard slab gels as described for high molecular weight complexes.[27] Cell lysates were produced by lysing Hek293 and Huh7 cells in NP40 buffer (25 mM HEPES‐KOH, 150 mM KCl, 1.5mM MgCl2, 10% glycerol, 0.5% NP40, 5 mM 2ME, pH 7.5 supplemented with protease inhibitors) for 30 min on ice. Extracts were clarified by centrifugation for 16 000 g for 10 min. The protein concentration was determined by Bradford assay. The indicated amounts of proteins were treated with different amounts of ZnPP for 2 h on ice, and then separated on 0.8% Agarose gels prepared with 0.5xTris‐Borate‐EDTA (TBE) buffer. The gels were run at 100 V for 2 h at 4 °C in 0.5x TBE buffer. […] No antibody and normal rabbit IgG (sc‐2027, Santa Cruz Biotechnology) were included as controls. The IP products were treated with ZnPP and electrophoresed as above. Free ZnPP and ZnPP bound to large complexes were visualized using a wide‐wavelength UV lightbox or with red fluorescence using excitation (EX) 608–632 nm and emission (EM) 675–720 nm. Thyroglobulin (670 kD), a heavy MW marker, was run in parallel lanes and visualized with Coomassie Blue staining or fluorescence to size the complexes. In some cases, cell lysates or IP were incubated with RNase A (Life Technologies, NY); or DNase 1 (Qiagen, CA) 100 µg/ml for 1 h at 4 °C prior to electrophoresis.

[9] abbreviates: TRAP, MPP added for the amplification steps only.
[10] abbreviates: Table 2a, mean of 2–4 experiments, 6 inhibitor concentrations 0–20 µM, read-out: IC50, cellular lysates [Trapeze].
[11] abbreviates: individual experiment, Figure 3B-D, gel densitometry, read-out: IC50 of telomerase activity, TRAP in Huh7 extracts.
The mark [12] stands for this setting: Figure 3A middle panel, 48 h, read-out: EC50 of telomerase activity in cultured Hek293 cells.
Where [13] appears, read: Table 2d, mean of 2–4 experiments, 48 h incubation, read-out: EC50, intact Hek293 cells [TRAP].
Where [14] appears, read: Figure 3A upper panel, 48 h, read-out: EC50 of telomerase activity in cultured Huh7 cells.
Where [15] appears, read: Table 2c, mean of 2–4 experiments, 48 h incubation, read-out: EC50, intact Huh7 cells [TRAP].

T1 sequence (P19821 whole entry): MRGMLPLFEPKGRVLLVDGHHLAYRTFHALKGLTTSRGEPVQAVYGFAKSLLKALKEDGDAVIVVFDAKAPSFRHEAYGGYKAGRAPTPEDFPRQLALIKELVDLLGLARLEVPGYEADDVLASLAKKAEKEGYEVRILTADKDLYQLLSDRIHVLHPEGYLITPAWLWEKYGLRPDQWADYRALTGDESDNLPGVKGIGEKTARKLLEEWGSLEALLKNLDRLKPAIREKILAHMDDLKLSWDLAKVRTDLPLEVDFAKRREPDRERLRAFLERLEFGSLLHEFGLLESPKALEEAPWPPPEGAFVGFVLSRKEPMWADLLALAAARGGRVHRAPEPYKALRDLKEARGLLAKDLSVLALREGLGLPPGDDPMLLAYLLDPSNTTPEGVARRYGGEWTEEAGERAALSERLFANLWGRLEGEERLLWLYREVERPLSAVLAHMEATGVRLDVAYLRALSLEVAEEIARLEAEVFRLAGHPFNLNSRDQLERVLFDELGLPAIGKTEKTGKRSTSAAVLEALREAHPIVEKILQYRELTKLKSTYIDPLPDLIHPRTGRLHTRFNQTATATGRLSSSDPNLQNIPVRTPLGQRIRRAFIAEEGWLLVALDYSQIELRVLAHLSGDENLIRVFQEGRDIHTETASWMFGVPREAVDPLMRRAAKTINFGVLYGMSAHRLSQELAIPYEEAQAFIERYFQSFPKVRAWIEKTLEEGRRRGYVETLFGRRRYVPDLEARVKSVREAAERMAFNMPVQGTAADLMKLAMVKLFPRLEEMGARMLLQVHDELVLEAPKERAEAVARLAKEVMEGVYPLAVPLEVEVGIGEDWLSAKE
T3 sequence (O14746 whole entry): as the sequence (O14746 whole entry) above
T3 sequence (O60832 whole entry partner): as the sequence (O60832 whole entry partner) above
T3 sequence (Q9NPE3 whole entry partner): as the sequence (Q9NPE3 whole entry partner) above
T3 sequence (Q9NX24 whole entry partner): as the sequence (Q9NX24 whole entry partner) above
T3 sequence (Q9NY12 whole entry partner): as the sequence (Q9NY12 whole entry partner) above
T3 sequence (Q9BUR4 whole entry partner): as the sequence (Q9BUR4 whole entry partner) above

Turning to `C/C(=C\C(=O)Nc1ccccc1C(=O)O)c1ccc2ccccc2c1` [BIBR, reference compound], in assay [1], the “Effect on proliferation, telomerase-expressing vs telomerase negative line” value is recorded as “greater propensity to decrease proliferation”.
Take `C=CC1=C(C)c2cc3[n-]c(cc4nc(cc5[n-]c(cc1n2)c(C)c5CCC(=O)[O-])C(CCC(=O)[O-])=C4C)c(C)c3C=C.[Co+2].[H+].[H+]` [CoPP, cobalt protoporphyrin]: in assay [2], the “Effect on expression of TERT, β-catenin and cyclin D1 (western blot)” value (“Effect on expression of TERT” below) is given as “failed to significantly alter”. For the same molecule, the “Effect on Taq polymerase” value in assay [3] (setting [9]) was “clearly inhibited Taq polymerase”; in assay [3] (concentrations of 5-10 µM, Figure S2), “potent antagonist”.
The IC50 is the concentration at which inhibition is half-maximal. The term EC50 denotes the concentration needed to bring the measured effect to its halfway point. For `C=CC1=C(C)c2cc3[n-]c(cc4[n-]c(cc5nc(cc1n2)C(C)=C5C=C)c(C)c4CCC(=O)O)c(CCC(=O)O)c3C.[Fe+2]` [FePP, iron protoporphyrin (heme)], the IC50 in assay [4] (setting [10]) was over 20 µM; in assay [4] (setting [11]) it was over 10 µM; in assay [5] it was 18.3 µM. For the same molecule, the EC50 in assay [6] (setting [12]) is over 10 µM; in assay [6] (setting [13]), over 20 µM; in assay [7] (setting [14]), over 10 µM; in assay [7] (setting [15]), over 20 µM. The “Effect on expression of TERT” value in assay [2] is recorded as “failed to significantly alter”. Further, in assay [3] (setting [9]), the “Effect on Taq polymerase” value is listed as “minimal inhibition”.
`C=Cc1c2[n-]c(c1C)/C=c1\[n-]/c(c(C)c1C=C)=C\c1[n-]c(c(CCC(=O)O)c1C)/C=c1\[n-]c(c(C)c1CCC(=O)O)=C2.[Sn+4]` [SnPP, tin protoporphyrin]: the figures for the half-inhibitory concentration (IC50) in assay [4] (setting [10]), in assay [4] (setting [11]) and in assay [5] were 12 µM, over 10 µM and over 20 µM, respectively. The EC50 is over 10 µM in assay [6] (setting [12]), over 20 µM in assay [6] (setting [13]), over 10 µM in assay [7] (setting [14]) and 10.8 µM in assay [7] (setting [15]). Besides, in assay [2], the “Effect on expression of TERT” value was “failed to significantly alter”. Moreover, the “Labelling/binding of cellular complexes on agarose gels” value in assay [8] was “did not label a discernable cellular complex”. For the same molecule, the “Effect on Taq polymerase” value in assay [3] (setting [9]) was “minimal inhibition”.
